The source of these data is ChEMBL document CHEMBL1201862, “PubChem BioAssay data set” (2004).

Test systems include K562; CCRF-CEM; SF-268; SF-295; TK-10; Malme-3M; UACC-257; SK-MEL-5; MCF7; UACC-62; NCI-H460; OVCAR-5; SNB-19; ACHN; SNB-75; MOLT-4; HL-60; HOP-62; A498; RXF 393.
Holding throughout (test): DTP human tumour cell line panel, 48 h

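Each compound was tested at five concentrations against cells in 96-well plates for 48 hours. GI50: concentration for 50% inhibition of growth.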 Activity calls are given as the source filed them. Rule as the data show it: active = GI50 up to about 1.1 µM and inactive = higher. A value given as a limit tells only on which side of the number the result lay.

By GI50 is commonly meant the concentration that inhibits growth by half. For `COP(=O)(OC)C(N)CCSC` (stereo not drawn), the GI50 in the experiment with K562, in the experiment on CCRF-CEM, with SF-268, in the experiment with SF-295, in the experiment on TK-10 and in the experiment with Malme-3M was > 100 µM (inactive) throughout. Besides, the GI50 in the experiment with UACC-257, in the experiment with SK-MEL-5, in the experiment on MCF7, with UACC-62, with NCI-H460 and with OVCAR-5 was > 100 µM (inactive) each time. Also, the GI50 in the experiment on SNB-19, with ACHN, in the experiment with SNB-75, in the experiment on MOLT-4, in the experiment with HL-60 and in the experiment with HOP-62 was > 100 µM (inactive) each time.
`Cn1cc(C(=O)/C(Cl)=C(\Cl)C(=O)O)c2ccccc21`: the GI50 with K562, with CCRF-CEM, in the experiment with SF-295, with TK-10, in the experiment on Malme-3M and in the experiment with UACC-257 was > 100 µM (inactive) throughout. Moreover, the GI50 in the experiment with SK-MEL-5, in the experiment on UACC-62, with A498, in the experiment with NCI-H460, in the experiment with OVCAR-5 and in the experiment on ACHN was > 100 µM (inactive) throughout. Also, the GI50 in the experiment with SNB-75, in the experiment with MOLT-4, in the experiment with HL-60, with RXF 393 and in the experiment on HOP-62 was > 100 µM (inactive) each time.
As for `O=C(O)c1ccc([Se][Se]c2ccc(C(=O)O)cc2)cc1`, the GI50 was 33.9 µM (inactive) in the experiment with SF-268; 23.6 µM (inactive) in the experiment with SF-295; 22.7 µM (inactive) in the experiment with TK-10; 26.1 µM (inactive) in the experiment on Malme-3M; 19.3 µM (inactive) in the experiment on UACC-62; 6.65 µM (inactive) in the experiment with NCI-H460. Besides, the GI50 in the experiment on OVCAR-5 was 23.5 µM (inactive); with SNB-19, 34.1 µM (inactive); with SNB-75, 33.9 µM (inactive); with RXF 393, 21.2 µM (inactive).
On to `CS/C(=N\S(=O)(=O)c1ccc(Cl)cc1)NCCN/C(=N/S(=O)(=O)c1ccc(Cl)cc1)SC`, for which the GI50 with K562 is > 100 µM (inactive); in the experiment on CCRF-CEM it was > 100 µM (inactive); in the experiment with SF-268, 21.3 µM (inactive); in the experiment with SF-295 it was 61.2 µM (inactive); with TK-10, 31.6 µM (inactive); in the experiment on Malme-3M, 49.8 µM (inactive). Moreover, the GI50 in the experiment with UACC-257 was > 100 µM (inactive); in the experiment with MCF7, > 100 µM (inactive); in the experiment on UACC-62 it was > 100 µM (inactive); in the experiment with A498, 37.5 µM (inactive); with NCI-H460 it was > 100 µM (inactive); in the experiment with OVCAR-5 it was > 100 µM (inactive). Also, the GI50 is 35.7 µM (inactive) in the experiment on SNB-19; > 100 µM (inactive) in the experiment on ACHN; 24.4 µM (inactive) in the experiment on SNB-75; > 100 µM (inactive) in the experiment with MOLT-4; > 100 µM (inactive) in the experiment with HL-60; 20.6 µM (inactive) with HOP-62.
For `O=C1/C(=C\c2cccc(Oc3ccccc3)c2)SC(c2ccccc2)N1c1cccc([N+](=O)[O-])c1` (stereo not drawn), the GI50 is 36.6 µM (inactive) with K562; 21.7 µM (inactive) with CCRF-CEM; > 100 µM (inactive) with SF-268; > 100 µM (inactive) in the experiment with SF-295; > 100 µM (inactive) in the experiment with TK-10; > 100 µM (inactive) in the experiment with Malme-3M. For the same compound, the GI50 was 97.3 µM (inactive) in the experiment with UACC-257; 42.8 µM (inactive) in the experiment with SK-MEL-5; 28.2 µM (inactive) in the experiment with MCF7; 60.1 µM (inactive) in the experiment with UACC-62; > 100 µM (inactive) with A498; > 100 µM (inactive) with NCI-H460. For the same compound, the GI50 in the experiment on OVCAR-5 is > 100 µM (inactive); with SNB-19, 65.3 µM (inactive); in the experiment on ACHN it was > 100 µM (inactive); in the experiment with MOLT-4, 40.7 µM (inactive); in the experiment with RXF 393, > 100 µM (inactive); with HOP-62 it was > 100 µM (inactive).
Take `Cc1sc(Cc2ccccc2)nc1-c1ccc(N)cc1`: the GI50 in the experiment with K562 is 20.7 µM (inactive); with CCRF-CEM, 15.9 µM (inactive); in the experiment with SF-268, 25 µM (inactive); with SF-295, 37.4 µM (inactive); in the experiment on TK-10 it was 47.5 µM (inactive); in the experiment with Malme-3M, 31.3 µM (inactive). In addition, the GI50 in the experiment on UACC-257 is 30 µM (inactive); with SK-MEL-5 it was 18 µM (inactive); in the experiment on MCF7, 19.5 µM (inactive); with UACC-62, 15.1 µM (inactive); in the experiment on A498 it was 29.4 µM (inactive); in the experiment with NCI-H460, 23 µM (inactive). Further, the GI50 in the experiment with OVCAR-5 was 32.5 µM (inactive); with SNB-19 it was 48.4 µM (inactive); with ACHN, 31.2 µM (inactive); in the experiment on MOLT-4, 13.8 µM (inactive); in the experiment on HL-60 it was 26.2 µM (inactive).
Regarding `CC(=O)Nc1cc2c(cc1O)CC[C@@H]1[C@@H]2CC[C@]2(C)[C@@H](O)CC[C@@H]12`, the GI50 was 23.5 µM (inactive) in the experiment with K562; 23.9 µM (inactive) in the experiment with CCRF-CEM; 13.1 µM (inactive) in the experiment with SF-268; 31.3 µM (inactive) with SF-295; 49.7 µM (inactive) in the experiment on TK-10; 21.8 µM (inactive) in the experiment with Malme-3M. For the same compound, the GI50 in the experiment with UACC-257 is 43.4 µM (inactive); in the experiment with SK-MEL-5, 22.4 µM (inactive); in the experiment on MCF7 it was 28.6 µM (inactive); in the experiment on A498, 24.1 µM (inactive); with NCI-H460 it was 34.8 µM (inactive); in the experiment with OVCAR-5, 86.9 µM (inactive). Moreover, the GI50 is > 100 µM (inactive) with SNB-19; 41.6 µM (inactive) in the experiment with ACHN; 34.7 µM (inactive) with MOLT-4; 29.6 µM (inactive) in the experiment on HL-60; 43.3 µM (inactive) with RXF 393; 73.1 µM (inactive) in the experiment on HOP-62.
For the compound `O=C(CCl)NC(Cc1ccc(F)cc1)C(=O)O` (stereo not drawn), the GI50 in the experiment with K562 is > 100 µM (inactive); in the experiment on CCRF-CEM it was > 100 µM (inactive); with SF-268, > 100 µM (inactive); with SF-295, > 100 µM (inactive); with Malme-3M, 69.3 µM (inactive); in the experiment on UACC-257 it was > 100 µM (inactive). Also, the GI50 with SK-MEL-5, with MCF7, in the experiment with UACC-62, in the experiment with A498, in the experiment on NCI-H460 and with OVCAR-5 was > 100 µM (inactive) throughout. Further, the GI50 with SNB-19, with SNB-75, in the experiment on MOLT-4, in the experiment with HL-60 and in the experiment with HOP-62 was > 100 µM (inactive) throughout.
Take `C#C[C@]1(O)[C@@H](CO)O[C@@H](n2ccc(=O)[nH]c2=O)[C@@H]1O`: the GI50 in the experiment with K562 is < 0.0146 µM (active); in the experiment on CCRF-CEM it was 0.19 µM (active); with SF-268, 0.116 µM (active); in the experiment with SF-295 it was 0.191 µM (active); in the experiment with TK-10, 0.413 µM (active); in the experiment with Malme-3M it was 0.288 µM (active). The GI50 in the experiment with UACC-257 is 1.81 µM (inactive); in the experiment on SK-MEL-5, 0.441 µM (active); in the experiment on MCF7, 0.0339 µM (active); with UACC-62, 0.156 µM (active); with A498 it was 0.724 µM (active); in the experiment on NCI-H460, < 0.01 µM (active). For the same compound, the GI50 is 0.406 µM (active) in the experiment with OVCAR-5; 1.03 µM (active) with SNB-19; 0.0272 µM (active) in the experiment on ACHN; 0.357 µM (active) in the experiment on SNB-75; < 0.0177 µM (active) with MOLT-4; 0.356 µM (active) in the experiment with HL-60. Also, the concentration for 50% growth inhibition (GI50) in the experiment on HOP-62 is 0.147 µM (active).
On to `CC1(C)CCCC2(C)[C@@H]1CC[C@]13C[C@](C)(CC[C@@H]21)[C@@H]3CO` (stereo partly drawn), for which the GI50 with K562, in the experiment with CCRF-CEM, with SF-268, in the experiment with SF-295, in the experiment on TK-10 and in the experiment on Malme-3M was > 100 µM (inactive) in each case. Moreover, the GI50 with UACC-257, in the experiment with SK-MEL-5, with UACC-62, with NCI-H460, in the experiment on OVCAR-5 and in the experiment on SNB-19 was > 100 µM (inactive) in each case. Further, the GI50 in the experiment with ACHN is > 100 µM (inactive); in the experiment on SNB-75, 46.7 µM (inactive); in the experiment with MOLT-4, > 100 µM (inactive); in the experiment with HL-60, > 100 µM (inactive); in the experiment on RXF 393, 98.9 µM (inactive); in the experiment on HOP-62, > 100 µM (inactive).
On to `COc1cc(Nc2c3ccccc3nc3ccccc23)ccc1NS(C)(=O)=O`, for which the GI50 with K562 is 34.4 µM (inactive); in the experiment on CCRF-CEM, 28.8 µM (inactive); in the experiment with SF-268, 4.39 µM (inactive); in the experiment on SF-295 it was 3.84 µM (inactive); in the experiment on Malme-3M, 7.66 µM (inactive); with UACC-257, 11.9 µM (inactive). Further, the GI50 was 6.53 µM (inactive) in the experiment with SK-MEL-5; 6.61 µM (inactive) in the experiment with UACC-62; 6.31 µM (inactive) in the experiment with A498; 2.64 µM (inactive) with NCI-H460; 11 µM (inactive) with OVCAR-5; 5.73 µM (inactive) in the experiment on SNB-19. Besides, the GI50 was 4.11 µM (inactive) in the experiment with ACHN; 7.46 µM (inactive) with SNB-75; 40.7 µM (inactive) in the experiment with MOLT-4; 4.79 µM (inactive) with HL-60; 7.6 µM (inactive) in the experiment on HOP-62.
For the compound `O=C1C=C[C@@H](COC2OC(CO)C(O)C(O)C2O)O1` (stereo partly drawn), the GI50 with K562 was 3.42 µM (inactive); in the experiment with CCRF-CEM it was 1.36 µM (inactive); in the experiment with SF-268, 25.8 µM (inactive); in the experiment with SF-295, 18.1 µM (inactive); in the experiment on UACC-257, 14.3 µM (inactive); in the experiment with SK-MEL-5, 17.8 µM (inactive). For the same compound, the GI50 was 4.46 µM (inactive) with MCF7; 10.2 µM (inactive) in the experiment on UACC-62; 16.1 µM (inactive) in the experiment with A498; 10.3 µM (inactive) in the experiment with NCI-H460; 22 µM (inactive) in the experiment with OVCAR-5; > 10 µM (inactive) in the experiment on SNB-19. In addition, the GI50 in the experiment on SNB-75 was 14.9 µM (inactive); with MOLT-4, 4.39 µM (inactive); in the experiment on HL-60, 1.72 µM (inactive); in the experiment on HOP-62, 56.2 µM (inactive).
